According to PMC12040169 (PLOS Biology, 2025):

Assay: in vitro
Details: human, hela cells, % viability

Row | Structure (SMILES) | viability at 28.5 h, 10 µM
1 | O=C(CSc1ncnc2ccccc12)Nc1nc2ccccc2s1 [CBK287510] | 85.5%
2 | CCn1cc(C(=O)NN)c(=O)c2cc(F)c(N3CCCCCC3)cc21 [CBK307145] | 100%
3 | Cc1c(C(N)=O)sc(NC(=O)c2cccnc2)c1C#N [CBK268163] | 105%
4 | OCCN(Cc1cccnc1)CC1(c2ccc(Cl)cc2)CC1 [CBK282943] | 101%
5 | COc1ccc(S(=O)(=O)Nc2nccc(-c3ccc(CN4C(=O)CCC4=O)cc3)n2)cc1 [CBK067438] | 91.5%
6 | COc1cc(CNc2ccc3[nH]c(=O)[nH]c3c2)cc(Br)c1OCC(=O)NC(C)(C)C [CBK266596] | 57%
7 | Cc1oc(CSCc2cc(C(=O)O)c(C)o2)cc1C(=O)O [CBK264291] | 90.7%
8 | COc1cc(C(=O)Nc2nc3c(s2)CC(C)CC3)cc(OC)c1OC (centres unmarked) [CBK287299] | 107%
9 | C=C1C2(C(=O)NCCn3nc(C)c(Cl)c3C)CCC(C2)C1(C)C (centres unmarked) [CBK281661] | 81.5%
10 | C(=C\c1cccc(Nc2ccc(Oc3ccccc3)cc2)n1)/c1ccccc1 [CBK037614] | 94.1%
11 | O=C(O)CNS(=O)(=O)c1cccc2nsnc12 [CBK261136] | 96.8%
12 | Cc1oc(-c2ccccc2)cc1C(=O)Nc1ccccc1N1CCCNCC1 [CBK038940T] | 83.5%
13 | O=C(O)c1cc(S(=O)(=O)NCc2ccco2)ccc1Cl [CBK058905] | 85.4%
14 | O=C(O)c1cc(NS(=O)(=O)c2ccc3c(c2)OCCCO3)ccc1F [CBK296731] | 104%
15 | Cc1ccc(-c2nnc(S)n2/N=C\c2ccccc2OCC(=O)O)cc1 [CBK264408] | 90.7%
16 | CC1(CNC(=O)c2cc(-c3cccc(F)c3)no2)COC1 [CBK281751] | 87.7%
17 | CCC1CCC2(CC1)NC(=O)N(Cc1nc(-c3cccs3)no1)C2=O (centres unmarked) [CBK305005] | 92.6%
18 | CNC(=O)c1ccc(NC(=O)CC(C)(C)CC(=O)O)cc1 [CBK296615] | 95.8%
19 | Cc1nn(C)c(Cl)c1S(=O)(=O)Nc1cccc(-c2nnn[nH]2)c1 [CBK062127] | 96%
20 | O=C(/C=C/c1ccc2c(c1)OCO2)NCCSc1ccccn1 [CBK264012] | 97.7%
21 | Cn1cc(CC2CCN(Cc3ccncc3)C2)cn1 (centres unmarked) [CBK304796] | 107%
22 | COc1cc2c(c(OC)c1OC)C1(CCN(Cc3ccc(S(C)(=O)=O)cc3)CC1)NC(=O)C2 [CBK040014] | 108%

Row | Structure (SMILES) | viability at 28.5 h, 10 µM
23 | Cc1ccc(NC(=O)C(=O)NCCCn2ccnc2)cc1Cl [CBK264238] | 92.2%
24 | CCSc1nnc(NC(=O)c2cnc(SC)nc2CC)s1 [CBK291250] | 101%
25 | O=P(O)(CCc1ccccn1)CN1CCCCC1 [CBK262312] | 97.2%
26 | COc1ccc(C(=O)N2CCC3(CCN(C(=O)CCSC)C3)C2)cc1OC (centres unmarked) [CBK131786] | 105%
27 | COc1cncc(-c2cc(Nc3ccc(O)cc3)ncn2)c1 [CBK090752] | 98%
28 | O=C(Nc1ccc2c(O)cc(S(=O)(=O)O)cc2c1)Nc1ccc2c(O)cc(S(=O)(=O)O)cc2c1 [CBK278157N] | 91.1%
29 | Cc1c(C(=O)Nc2nccs2)nnn1-c1ccccc1 [CBK287766] | 83.9%
30 | CCOC(=O)c1cnn(C2CCCN(Cc3cn(C)nc3C)C2)c1 (centres unmarked) [CBK304044] | 89.2%
31 | COc1ccc(NC(=O)CSc2cnn[nH]2)cc1OC [CBK270010] | 102%
32 | Cc1ccccc1N1CCC(CNC(=O)CCc2ccnn2C)C1 (centres unmarked) [CBK306543] | 89%
33 | O=C(Nc1cccc2cccnc12)c1ccc([N+](=O)[O-])o1 [CBK268007] | 61.1%
34 | O=C(N/N=C/c1ccccn1)c1n[nH]c2c1CCCC2 [CBK262882] | 90.8%
35 | O=C1CC2(CCNCC2)Oc2c1ccc1ccccc21 [CBK282714] | 93%
36 | COc1cccc(NC(=O)NCc2ccc(F)cc2)c1 [CBK115590] | 90.2%
37 | COc1cc2c(cc1OC)CN(C(=O)CSc1nc(-c3cccnc3)ccc1C#N)CC2 [CBK267464] | 69.8%
38 | CCCn1cnc2cc(NC(=O)c3ccc(=O)n(CC(=O)N(C)c4ccccc4)c3)ccc21 [CBK286026] | 94.3%
39 | O=C(/C=C/c1ccc2c(c1)OCO2)NCCSCc1c(F)cccc1Cl [CBK265239] | 90.3%
40 | Cc1ccc(Cn2c(OCCN(C)C)nc3c2c(=O)n(C)c(=O)n3C)cc1 [CBK134241] | 89.3%
41 | Cc1[nH]c2c(C)ccc(C)c2c1CC(=O)N1[C@@H](c2ccccc2F)C[C@@H]2NC(=O)CCC[C@H]21 [CBK286011] | 76.3%
42 | CC(NC(=O)CC(F)(F)F)c1nc(-c2ccncc2)cs1 (centres unmarked) [CBK306370] | 88.5%
43 | CC(=O)Nc1ccc(-n2cc(COC3CCN(C(=O)OC(C)(C)C)CC3)nn2)cc1 [CBK149481] | 121%
44 | Cc1ccccc1C(=O)NCC(=O)Nc1ccc2cc(Br)cnc2n1 [CBK063312] | 96.5%

Row | Structure (SMILES) | viability at 28.5 h, 10 µM
45 | CC1=NN(c2ccccc2)C(=O)C1C(=O)c1ccccc1 (centres unmarked) [CBK083564] | 99.3%
46 | O=C(NC[C@H]1C[C@@H]2CC[N@]1C[C@@H]2CN1CCN(c2ccccn2)CC1)c1ccco1 [CBK288867] | 107%
47 | O=S(=O)(N1CCNCC1)N1CCOCC1 [CBK267467] | 88.5%
48 | CC(NC(=O)N1CCNC(=O)C1)c1ccccc1 (centres unmarked) [CBK155877] | 96%
49 | CCCCCNC(=O)N1CCN(CC(=O)OCC)CC1 [CBK044786] | 96.6%
50 | O=c1nc(NS(=O)(=O)c2ccc(Oc3ccccc3)cc2)c(F)c[nH]1 [CBK067571] | 89.3%
51 | CC(C)(C)OC(=O)N1CCN(c2cncc(OC3CSCc4ccccc43)n2)CC1 (centres unmarked) [CBK172354] | 105%
52 | COc1cccc(NCc2nnc(SCC(=O)O)n2C2CCCCC2)c1 [CBK297499] | 95.6%
53 | CC(C)(C)c1ccc(-c2nc3ncccc3cc2N)cc1 [CBK067611] | 94.4%
54 | CC1=C[C@@H](CNC(=O)NC(C)C)[C@H](C(C)C)C[C@H]1CC(=O)N1CCN(C)CC1 [CBK289047] | 100%
55 | CCOC(=O)c1csc(C2CCCN2C(=O)c2ccoc2C)n1 (centres unmarked) [CBK304080] | 109%
56 | CN(C)CCN(C)C(=O)c1ccc(-c2cccc(Cl)c2Cl)nc1N(C)C [CBK106082] | 94.1%
57 | O=C(Nc1cccnc1)c1cc(-c2ccc(Cl)cc2)on1 [CBK116555] | 92.8%
58 | CN(C)CCOCc1ncccc1OCCOC1CCCCO1 (centres unmarked) [CBK045662] | 93.1%
59 | OCc1cccc(-c2nccnc2NCc2ccc(F)cc2)c1 [CBK037670] | 103%
60 | O=C(CCCN1C(=O)c2ccccc2C1=O)Oc1ccc(-c2ccccc2)cc1 [CBK267144] | 98.1%
61 | Brc1cnn(-c2ccccc2)c1 [CBK027172] | 87.6%
62 | C=CCS(=O)(=O)N1CCC(c2nc(C)n3c(C)csc23)CC1 [CBK285251] | 80%
63 | CC(=O)NCCn1cc2c(n1)[C@H]1CN(C(=O)c3ccccc3)C[C@H]1C2 [CBK282073] | 111%
64 | CO[C@@]12CC[C@@H](O)C[C@@H]1N(C(=O)c1cccc3c1NCCC3)CC2 [CBK306741] | 109%
65 | CCOC(=O)CC1C(=O)NCCN1Cc1cccc(C)n1 (centres unmarked) [CBK269965] | 101%
66 | Cc1[nH]c2cccc(C(=O)N(C)CCc3cn[nH]c3)c2c1C [CBK283070] | 85.4%

Row | Structure (SMILES) | viability at 28.5 h, 10 µM
67 | COc1ccc(NC(=O)c2cnc3sc(C)cn3c2=O)c(OC)c1 [CBK287712] | 87%
68 | O=C(c1cccc(-c2cc3ccccc3oc2=O)c1)N1CCN(c2ccc([N+](=O)[O-])cc2Cl)CC1 [CBK269704] | 101%
69 | C=CCN1C(=O)CC2(C1=O)C(=O)N(CC)c1ccc(F)cc12 (centres unmarked) [CBK075316] | 115%
70 | C=Cn1cc(CN2CCN(C3CCCCC3)C(=O)C2)c(C)n1 [CBK282561] | 109%
71 | Cc1ccc(CN2C[C@H]3C(=O)Nc4ccccc4C(=O)N[C@@]3(C)C2)o1 [CBK284706] | 95.7%
72 | C=Cn1cc(CN2CCCC(O)(c3ccc(F)cc3)CC2)c(C)n1 (centres unmarked) [CBK285398] | 106%
73 | COc1ccccc1-c1cc(C(=O)NCCCN2CCOCC2)c2ccccc2n1 [CBK267780] | 83.8%
74 | COc1ccc(S(=O)(=O)N(c2ccccc2)C2CCNCC2)cc1OC [CBK165076T] | 73.9%
75 | O=C(O)C(Cc1c[nH]c2ccccc12)N1C(=O)C2C3c4ccccc4C(c4ccccc43)C2C1=O (centres unmarked) [CBK265377] | 91.4%
76 | C[C@]1(CO)[C@H]2Cc3sc(-c4ccccc4)nc3[C@@H](CC(=O)O)[C@]2(C)CC[C@H]1O [CBK289572] | 84.5%
77 | O=c1[nH]c2ccccc2n1CCCN1CCC(Cc2ccccc2)CC1 [CBK138318] | 104%
78 | Cc1ccc(C)c2c(C)c(C(=O)NCC[S+](C)[O-])[nH]c12 (centres unmarked) [CBK282484] | 76.5%
79 | Cc1cn2c3c(=O)n(CCN4CCOCC4)c(=O)n(C)c3nc2n1CC1CCCO1 (centres unmarked) [CBK269985] | 92.3%
80 | CCCCOC(=O)c1ccc(N2C(=O)CC(N3CCN(c4ccc(F)cc4)CC3)C2=O)cc1 (centres unmarked) [CBK265527] | 94.6%
81 | Cc1ccn2cc(CNC(=O)N(C)CCc3scnc3C)nc2c1 [CBK307379] | 87.5%
82 | O=C(Cc1nc2ccccc2[nH]1)N1CCOCC1 [CBK019505] | 93.7%
83 | Brc1ncccc1OCc1ccccc1 [CBK001458] | 82.6%
84 | C=C(C)CNC(=O)c1cc(-c2cccc(NC(C)=O)c2)cnc1N(C)S(C)(=O)=O [CBK076622] | 93.9%
85 | N=C1NC(=O)/C(=C/c2ccc(O)c(Cl)c2)S1 [CBK100992] | 109%
86 | c1cc(CCNc2cc(-c3ccc4c(c3)OCO4)ncn2)ccn1 [CBK037689] | 99.5%
87 | CC(C(=O)Nc1ccc(S(N)(=O)=O)cc1)N(C)Cc1ccccc1F (centres unmarked) [CBK305840] | 105%

Same assay, conditions: human, hela cells, % viability, bulk resorufin, single well

Row | Structure (SMILES) | viability at 28.5 h, 10 µM
88 | COc1cc(/C=C2\C(=O)NC(=O)N(c3cc(C)ccc3C)C2=O)ccc1O [CBK264161] | 91%
89 | CCCN(CCCc1ccccc1)C1Cc2cc(OC)c(OC)cc2C1 [CBK017596C] | 96.6%
